Laboratory results as given in ChEMBL document CHEMBL4138146, “A Schmidt rearrangement-mediated synthesis of novel tetrahydro-benzo[1,4]diazepin-5-ones as potential anticancer and antiprotozoal agents” (Eur J Med Chem, 2017).

Experiments:
Format in all cases: functional
[1] = system: CCRF-CEM; test: Growth inhibition of human CCRF-CEM cells assessed as cell growth at 10 uM incubated for 48 hrs by sulforhodamine B assay relative to control; conditions: read-out: Activity
[2] = system: HOP-62; test: Growth inhibition of human HOP62 cells assessed as cell growth at 10 uM incubated for 48 hrs by sulforhodamine B assay relative to control; conditions: HOP-62, 48 h, read-out: Activity
[3] = system: HOP-92; test: Growth inhibition of human HOP92 cells assessed as cell growth at 10 uM incubated for 48 hrs by sulforhodamine B assay relative to control; conditions: HOP-92, 48 h, read-out: Activity
[4] = system: NCI-H226; test: Growth inhibition of human NCI-H226 cells assessed as cell growth at 10 uM incubated for 48 hrs by sulforhodamine B assay relative to control; conditions: NCI-H226, 48 h, read-out: Activity
[5] = system: NCI-H23; test: Growth inhibition of human NCI-H23 cells assessed as cell growth at 10 uM incubated for 48 hrs by sulforhodamine B assay relative to control; conditions: NCI-H23, 48 h, read-out: Activity
[6] = system: NCI-H522; test: Growth inhibition of human NCI-H522 cells assessed as cell growth at 10 uM incubated for 48 hrs by sulforhodamine B assay relative to control; conditions: NCI-H522, 48 h, read-out: Activity
[7] = system: COLO 205; test: Growth inhibition of human COLO205 cells assessed as cell growth at 10 uM incubated for 48 hrs by sulforhodamine B assay relative to control; conditions: COLO 205, 48 h, read-out: Activity
[8] = system: HCC 2998; test: Growth inhibition of human HCC2998 cells assessed as cell growth at 10 uM incubated for 48 hrs by sulforhodamine B assay relative to control; conditions: HCC 2998, 48 h, read-out: Activity
[9] = system: HCT-116; test: Growth inhibition of human HCT116 cells assessed as cell growth at 10 uM incubated for 48 hrs by sulforhodamine B assay relative to control; conditions: HCT-116, 48 h, read-out: Activity
[10] = system: HT-29; test: Growth inhibition of human HT-29 cells assessed as cell growth at 10 uM incubated for 48 hrs by sulforhodamine B assay relative to control; conditions: HT-29, 48 h, read-out: Activity
[11] = system: SF-268; test: Growth inhibition of human SF268 cells assessed as cell growth at 10 uM incubated for 48 hrs by sulforhodamine B assay relative to control; conditions: SF-268, 48 h, read-out: Activity
[12] = system: SF-539; test: Growth inhibition of human SF539 cells assessed as cell growth at 10 uM incubated for 48 hrs by sulforhodamine B assay relative to control; conditions: SF-539, 48 h, read-out: Activity
[13] = system: SNB-75; test: Growth inhibition of human SNB75 cells assessed as cell growth at 10 uM incubated for 48 hrs by sulforhodamine B assay relative to control; conditions: SNB-75, 48 h, read-out: Activity
[14] = system: Malme-3M; test: Growth inhibition of human MALME-3M cells assessed as cell growth at 10 uM incubated for 48 hrs by sulforhodamine B assay relative to control; conditions: read-out: Activity
[15] = system: M14; test: Growth inhibition of human M14 cells assessed as cell growth at 10 uM incubated for 48 hrs by sulforhodamine B assay relative to control; conditions: M14, 48 h, read-out: Activity
[16] = system: MDA-MB-435; test: Growth inhibition of human MDA-MB-435 cells assessed as cell growth at 10 uM incubated for 48 hrs by sulforhodamine B assay relative to control; conditions: MDA-MB-435, 48 h, read-out: Activity
[17] = system: SK-MEL-5; test: Growth inhibition of human SK-MEL-5 cells assessed as cell growth at 10 uM incubated for 48 hrs by sulforhodamine B assay relative to control; conditions: SK-MEL-5, 48 h, read-out: Activity
[18] = system: UACC-62; test: Growth inhibition of human UACC62 cells assessed as cell growth at 10 uM incubated for 48 hrs by sulforhodamine B assay relative to control; conditions: UACC-62, 48 h, read-out: Activity
[19] = system: OVCAR-4; test: Growth inhibition of human OVCAR4 cells assessed as cell growth at 10 uM incubated for 48 hrs by sulforhodamine B assay relative to control; conditions: OVCAR-4, 48 h, read-out: Activity
[20] = system: OVCAR-5; test: Growth inhibition of human OVCAR5 cells assessed as cell growth at 10 uM incubated for 48 hrs by sulforhodamine B assay relative to control; conditions: OVCAR-5, 48 h, read-out: Activity
[21] = system: OVCAR-8; test: Growth inhibition of human OVCAR8 cells assessed as cell growth at 10 uM incubated for 48 hrs by sulforhodamine B assay relative to control; conditions: OVCAR-8, 48 h, read-out: Activity
[22] = system: NCI/ADR-RES; test: Growth inhibition of human NCI/ADR-RES cells assessed as cell growth at 10 uM incubated for 48 hrs by sulforhodamine B assay relative to control; conditions: read-out: Activity
[23] = system: A498; test: Growth inhibition of human A498 cells assessed as cell growth at 10 uM incubated for 48 hrs by sulforhodamine B assay relative to control; conditions: A498, 48 h, read-out: Activity
[24] = system: ACHN; test: Growth inhibition of human ACHN cells assessed as cell growth at 10 uM incubated for 48 hrs by sulforhodamine B assay relative to control; conditions: read-out: Activity
[25] = system: RXF 393; test: Growth inhibition of human RXF393 cells assessed as cell growth at 10 uM incubated for 48 hrs by sulforhodamine B assay relative to control; conditions: RXF 393, 48 h, read-out: Activity
[26] = system: UO-31; test: Growth inhibition of human UO31 cells assessed as cell growth at 10 uM incubated for 48 hrs by sulforhodamine B assay relative to control; conditions: UO-31, 48 h, read-out: Activity
[27] = system: PC-3; test: Growth inhibition of human PC3 cells assessed as cell growth at 10 uM incubated for 48 hrs by sulforhodamine B assay relative to control; conditions: PC-3, 48 h, read-out: Activity
[28] = system: DU-145; test: Growth inhibition of human DU145 cells assessed as cell growth at 10 uM incubated for 48 hrs by sulforhodamine B assay relative to control; conditions: DU-145, 48 h, read-out: Activity
[29] = system: MDA-MB-231; test: Growth inhibition of human MDA-MB-231 cells assessed as cell growth at 10 uM incubated for 48 hrs by sulforhodamine B assay relative to control; conditions: MDA-MB-231, 48 h, read-out: Activity
[30] = system: Hs-578T; test: Growth inhibition of human Hs 578T cells assessed as cell growth at 10 uM incubated for 48 hrs by sulforhodamine B assay relative to control; conditions: read-out: Activity
[31] = system: BT-549; test: Growth inhibition of human BT549 cells assessed as cell growth at 10 uM incubated for 48 hrs by sulforhodamine B assay relative to control; conditions: BT-549, 48 h, read-out: Activity
[32] = system: T47D; test: Growth inhibition of human T47D cells assessed as cell growth at 10 uM incubated for 48 hrs by sulforhodamine B assay relative to control; conditions: read-out: Activity
[33] = system: MDA-MB-468; test: Growth inhibition of human MDA-MB-468 cells assessed as cell growth at 10 uM incubated for 48 hrs by sulforhodamine B assay relative to control; conditions: MDA-MB-468, 48 h, read-out: Activity

Row | SMILES | growth at 10 µM [1] | growth at 10 µM [2] | growth at 10 µM [3] | growth at 10 µM [4] | growth at 10 µM [5] | growth at 10 µM [6] | growth at 10 µM [7] | growth at 10 µM [8] | growth at 10 µM [9] | growth at 10 µM [10] | growth at 10 µM [11] | growth at 10 µM [12] | growth at 10 µM [13] | growth at 10 µM [14] | growth at 10 µM [15] | growth at 10 µM [16] | growth at 10 µM [17] | growth at 10 µM [18] | growth at 10 µM [19] | growth at 10 µM [20] | also measured
1 | O=C1CC(c2cc3ccc4ccccc4c3[nH]c2=O)Nc2ccccc21 (stereo unspecified) | 101% | 91.1% | 104% | 92.5% | 93.6% | 89.2% | 86.7% | 108% | 93% | 99.1% | 96.8% | 82.2% | 102% | 84.7% | 96.4% | 109% | 98.9% | 101% | 87.8% | 114% | growth at 10 µM [21]: 110%; growth at 10 µM [22]: 108%; growth at 10 µM [23]: 115%; growth at 10 µM [24]: 106%; growth at 10 µM [25]: 110%; growth at 10 µM [26]: 95.4%; growth at 10 µM [27]: 102%; growth at 10 µM [28]: 84.3%; growth at 10 µM [29]: 69.3%; growth at 10 µM [30]: 77.3%; growth at 10 µM [31]: 69.4%; growth at 10 µM [32]: 93.1%; growth at 10 µM [33]: 91.2%
2 | O=C1CC(c2cc3ccccc3[nH]c2=O)Nc2ccccc21 (stereo unspecified) | 106% | 100% | 108% | 96.5% | 97.8% | 90.7% | 115% | 103% | 91.6% | 99.5% | 101% | 99.4% | 90.4% | 106% | 101% | 108% | 103% | 96.3% | 109% | 106% | growth at 10 µM [21]: 108%; growth at 10 µM [22]: 108%; growth at 10 µM [23]: 79.4%; growth at 10 µM [24]: 99.9%; growth at 10 µM [25]: 99.7%; growth at 10 µM [26]: 95.2%; growth at 10 µM [27]: 104%; growth at 10 µM [28]: 105%; growth at 10 µM [29]: 83.9%; growth at 10 µM [30]: 99.7%; growth at 10 µM [31]: 94.3%; growth at 10 µM [32]: 94.3%; growth at 10 µM [33]: 96.5%
